Source: patent US11149277B2, “Method of producing enriched exosomes” (National Health Research Institutes, priority 2016, dated 2021)

Columns and labels:
[1] = system: mesenchymal stem cells (MSCs); experiment: Osteogenic, adipogenic and neural differentiation of MSCs; format: cell-based; details: GW-treated MSCs
Experimental: (A) and (B) show osteogenic differentiation of MSCs and EP4 antagonist GW-treated MSCs. MSCs were cultured in osteogenic differentiation medium and then stained with Alizarin Red S. Osteogenic differentiation was quantified by measuring the optical density (OD) of Alizarin Red S staining. […] MSCs were cultured in adipogenic differentiation medium. […] MSCs were cultured in neural differentiation medium for 7 or 14 days and then analyzed for the expression of neuronal marker tublin β3 and NeuN using western blotting.
GW-treated MSCs were cultured in osteogenic differentiation medium, adipogenic differentiation medium and neuron differentiation medium, respectively.

neural stem cells (NSCs) = experiment: EV/exosome markers and SOX2 in neural stem cells; format: cell-based; details: GW for 4 days
Text: FIG. 10 includes blots and a graph. (A) is a graph showing vesicle number analysis of GW-treated mesenchymal stem cells (MSCs) P4 fractions. The CM-P4 GW-treated MSCs were collected and subjected to NanoSight Nanoparticle Tracking Analysis (NTA). Quantification of EV/exosome release is shown as the ratio of [vesicle number]/[cell number]. Data are means±SEM (n=3). ***P≤0.001. (B) is a set of blots showing the protein contents measured in the EV/exosome fraction released by MSCs treated with vehicle DMSO (MSC) or EP4 antagonists (MSCGW). The culture media (D1-4: conditioned medium from day 1 to day 4; D5-8: conditioned medium from day 5 to day 8) were collected from MSCs treated with vehicle (MSC), or GW (MSCGW) for 8 days. (C) is a set of blots showing the protein contents measured in the EV/exosome fraction released by neural stem cells (NSCs) treated with vehicle DMSO or EP4 antagonists. The culture media were collected from […] treated with DMSO or GW for 4 days. EV/exosome protein released by the same number of NSCs was loaded in the Western blotting.
Isolated neural stem cells (NSCs) were cultured in NSC medium (225 ml low glucose DMEM, 225 ml F12, 50 ml vesicle-depleted Bovine serum) with or without an EP4 antagonist (GW at 20-30 μg/ml) for 4 days. The culture medium was supplied with 10-15 μg/ml of GW on the third day of the cultural period. […]

NAMECs = experiment: Resistance of NAMECs to 0.05% trypsin (MET); format: cell-based, human; details: 4 days treatment
Experimental: FIG. 3 includes a set of images and two graphs. (A) is a set of bright-field images of NAMECs treated with vehicle, GW627368X, Dynasore (1 μM), or GW627368X plus Dynasore (0.5, 1, 1.5 μM) for 4 days. Scale bar, 100 μm. (B) is a graph showing the percentage of NAMECs treated with vehicle, GW627368X, Dynasore (1 μM), or GW627368X plus Dynasore (0.75 and 1 μM) that were resistant to 0.05% trypsin. Data are means±SEM, (n=3). ***P≤0.001. (C) is a graph showing Boyden chamber migration of NAMECs treated with vehicle (Crl), GW627368X, Dynasore (1 μM), or GW627368X plus Dynasore (0.5, 0.75, 1 μM) for 4 days. Data are means±SEM (n=3). **P≤0.005. ***P≤0.001.

Structure (SMILES): CCOc1c2c(c(OCC)c3ccccc13)C(=O)N(c1ccc(CC(=O)NS(=O)(=O)c3ccccc3)cc1)C2 [GW627368X]
- abilities to differentiate into osteoblasts, adipocytes or nerve cells vs non-treated MSCs [1]: much lowered
- content of exosomal markers CD81 and GAPDH in NSC culture (neural stem cells (NSCs)): increased
- expression level of NSC marker SOX2 vs non-treated NSCs (neural stem cells (NSCs)): much lower
- resistance to disassociation by 0.05% trypsin (NAMECs): more resistant
